Assay results reported in publication PMC7188855, “Nucleic acid recognition and antiviral activity of 1,4-substituted terphenyl compounds mimicking all faces of the HIV-1 Rev protein positively-charged α-helix” (Scientific Reports, 2020).
Read-outs that look alike come from different tables or passages of the source.

Experiments:
[1] = tested on: LTRc, core region of the HIV-1 LTR promoter; test: EMSA of association to LTRc DNA; assay type: binding; settings: 20 nM LTRc duplex; 10 mM HEPES pH 7.5, 300 mM KCl, 1 mM MgCl2, 0.5 mM EDTA
Procedure: (§1) The experiments monitoring RRE-Rev inhibition utilized 78 nM full-length RRE and 1.32 μM full-length Rev dissolved in 10 mM HEPES pH 7.5, 300 mM KCl, 1 mM MgCl2 and 0.5 mM EDTA binding buffer, and increasing concentrations of each compound up to 50 μM[21],[39]. The reactions were incubated at room temperature for 20 minutes and loaded onto 8% polyacrylamide gels with TB running buffer. Gels were run at 4 °C for 1–4 hours at 150 V, and the bands were stained with SYBR gold and quantified with Quantity One 4.1 analysis software. Experiments monitoring binding to the 58-base pair HIV-1 LTRc core segment utilized 20 nM LTRc duplex dissolved in the same binding buffer, and increasing concentrations of each compound. The reactions were similarly incubated and loaded onto 20% polyacrylamide gels with TB running buffer. The gels were run at 4 °C for 3.5 hours at 150 V, and the bands were stained and quantified as described above. The specificity of LTRc association was evaluated by duplicating the experiments in the presence of a 100-fold molar excess of DNAd duplex (28-fold base-pair molar excess). In all cases, we monitored the disappearance of the band corresponding to high-order RRE-Rev complexes or free LTRc, and 50% response RC50 values were determined with Prism by fitting the data to a sigmoidal inhibitory model: I−Imin=ImaxC/1+C/RC50 where I is the intensity of the band corresponding to LTRc or high-order RRE-Rev species at compound concentration C, Imax the best-fit value for maximum intensity, and Imin the minimum intensity obtained at the highest concentration of inhibitor. All EMSA experiments were repeated three times for each compound.

[2] = Cellular viability (CellTiterGlo) in mock infected cells; assay type: cell-based; settings: human, mock infected MT-2 cells
Procedure: (§2) The methodology used to perform and analyse these experiments has been reported elsewhere[7],[21],[22]. Briefly, infectious supernatants were obtained from transfection of plasmid pNL4.3-Ren on 293 T cells, MT-2 cells were infected with these supernatants in the presence of the compounds, and anti-HIV activity quantification was performed 48 h post-infection by determining luciferase activity in cell lysates compared to a non-treated control (100%). Cellular viability was evaluated in mock infected cells similarly treated with the same concentrations of compounds using the CellTiterGlo (Promega) assay.

[3] = tested on: full length proviral HIV-1 (NL4.3-luc); test: Transfection of full-length proviral HIV-1 (NL4.3-luc) in MT-2 cells; assay type: cell-based; settings: Human immunodeficiency virus 1, MT2, 48 h, read-out: EC50 transfection HIV-1
HIV-1 LTR promoter = test: Transfection of pLTR-luc in MT-2 cells; settings: Human immunodeficiency virus 1, MT2, 48 h, read-out: EC50 transfection HIV-1 LTR
Procedure: (§3) To further assess the mechanism of antiviral action of the compounds, we checked whether they also interfered with the regulatory sequences of HTLV-1, a closely related retrovirus.
(§4) MT-2 cells were transfected with plasmids containing a luciferase reporter gene whose expression was under the control of the full length proviral HIV-1 (NL4.3-luc), the HIV-1 LTR promoter (pLTR-luc), or the HTLV-1 LTR promoter (pLTR(HTLV)-luc). After transfection, cells were treated with different compound concentrations, and activity quantification was performed 48 h later by determining luciferase activity in cell lysates as described[7],[21],[22].

high-order RRE-Rev = test: EMSA of full-length RRE-Rev ribonucleoprotein formation; assay type: binding, HIV-1; settings: 78 nM RRE, 1.32 μM Rev, 300 mM KCl, 1 mM MgCl2, band of high-order complexes
Text: After the high-affinity interaction between RRE subdomain IIB and the Rev34–50 helix of the first Rev monomer is established, the RRE-Rev ribonucleoprotein is formed by the incorporation of additional Rev units binding to further sites in the RRE (Fig. 3B, right)[9],[10],[13]. Using an electrophoretic mobility shift assay (EMSA) involving full-length RRE and Rev, we also evaluated whether 1,4-terphenyl compounds were capable of interfering with the formation of the ribonucleoprotein. […] The effect was particularly prominent for high-order complexes (containing a greater number of Rev monomers), but the inhibition of low-order complexes by 1d was also detected at concentrations consistent with the IC50 value measured in the IIB-Rev34–50 displacement experiment. Compounds 1b and 3c exerted a weaker effect on the RRE-Rev complex, in agreement with the results obtained in the displacement experiments monitored by fluorescence anisotropy (Fig. 3B and Table 1).
as §1

[4] = target: RRE subdomain IIB-Rev34–50; test: Fluorescence anisotropy displacement of the IIBh-Rev34–50 interaction; settings: read-out: IC50, RRE subdomain IIB-Rev34–50, 60 nM IIBh, 10 nM frevp, 100 mM KCl, 20 mM NaCl, 2 mM MgCl2
Procedure: These experiments were conducted in a Victor X5 (PerkinElmer) plate reader as described before[7],[21], using 10 nM frevp and 60 nM IIBh. […] Each fluorescence anisotropy experiment was repeated at least two times.

HIV-1 = test: Cellular HIV-1 infection assay (NL4.3-Ren, MT-2 cells); assay type: cell-based; settings: Human immunodeficiency virus 1, MT2, 48 h post-infection
Procedure: as §2

HTLV-1 LTR promoter = test: Transfection of pLTR(HTLV)-luc in MT-2 cells; settings: Primate T-lymphotropic virus 1, MT2, 48 h, read-out: EC50 transfection HTLV LTR
Procedure: as §3, §4

[5] = target: TARh hairpin containing the HIV-1 Tat-binding UCU bulge; test: Fluorescence intensity binding to control TARh hairpin; settings: for Kd(TARh)/Kd(IIBh): low ionic strength, 10 mM sodium phosphate pH 6.6, uses Kd1
Text: To evaluate the specificity of subdomain IIB recognition, we measured binding to a control TARh hairpin containing the HIV-1 Tat-binding UCU bulge[23] (Fig. 1D). […] We further assessed specificity by duplicating the IIBh-23fl association experiments in the presence of a 10-fold molar excess of tRNA^Lys or a 26-base pair LTRd DNA duplex. The binding curves of the compounds were affected by the presence of competitive tRNA^Lys and to a lesser extent by LTRd (Figs. 4A, S4 and S5 and Tables 2 and S2).
These experiments measured association to IIBh-23fl or TARh-8fl RNA molecules labelled with fluorescein at extrahelical loop nucleotides U23 and U8, respectively (Fig. 1D), and were carried out under two different ionic conditions in a Victor X5 plate reader, using excitation and emission wavelengths of 485 and 520 nm, respectively. We also attempted to measure association to an alternative IIBh hairpin containing 2-aminopurine instead of adenine at unpaired loop IIB residue A19[21], but all terphenyls fluoresced at the excitation wavelength of this fluorophore. IIBh-23fl or TARh-8fl (at 100 nM concentration) was equilibrated for 5 minutes after each ligand addition in a buffer containing either 10 mM sodium phosphate pH 6.6 and 0.1 mM EDTA or 10 mM HEPES pH 7.5, 200 mM KCl and 2 mM MgCl2. In addition to the TARh specificity control, the RNA and DNA specificity of the IIBh interactions was assessed by duplicating the experiments in the presence of a 10-fold molar excess (1 μM) of either tRNA^Lys or DNA duplex LTRd. The equilibrium dissociation constants Kd were determined by fitting the fluorescence intensity curves with DYNAFIT[40]. We used one-site, two independent-sites and two interacting-sites binding models for all curves, and the best model was automatically selected by model discrimination analysis, except where indicated. The final graphs were plotted with Prism. All fluorescence intensity experiments were performed at least two times for each compound and condition.

[6] = 10 mM sodium phosphate pH 6.6, 0.1 mM EDTA, read-out: Kd (TARh), one-site or first-site Kd1
[7] = higher ionic strength, 10 mM HEPES pH 7.5, 200 mM KCl, 2 mM MgCl2
[8] = higher ionic strength, 10 mM HEPES pH 7.5, 200 mM KCl, 2 mM MgCl2, read-out: Kd (TARh), Table S2

COc1cc(CCN)c(-c2cc(C)c(-c3cc(CCN)c(OC)cc3CCN)cc2C)cc1CCN [Compound 1a]
association to LTRc (EMSA) [1]: associated to LTRc at low μM concentrations | CC50 at 48 h [2]: > 100 µM | EC50 [3]: 12.2 µM | EC50 (HIV-1 LTR promoter): 7.2 µM | IC50 (high-order RRE-Rev): 6.8 µM | IC50 [4]: 14 µM | EC50 (HIV-1): 10.6 µM | EC50 (HTLV-1 LTR promoter): 16.7 µM | Kd [5, 6]: 12 µM | Kd(TARh)/Kd(IIBh), Table S2 [5, 7]: 3.0 | Kd [5, 8]: 13 µM | Kd(TARh)/Kd(IIBh) [5]: 12

Cc1cc(-c2cc(CCN)ccc2CCN)c(C)cc1-c1cc(CCN)ccc1CCN [Compound 1d]
association to LTRc (EMSA) [1]: associated to LTRc at low μM concentrations | CC50 at 48 h [2]: > 100 µM | EC50 [3]: 6 µM | EC50 (HIV-1 LTR promoter): 3.2 µM | IC50 (high-order RRE-Rev): 3 µM | IC50 [4]: 47 µM | EC50 (HIV-1): 57.9 µM | EC50 (HTLV-1 LTR promoter): 24.9 µM | Kd [5, 6]: 22 µM | Kd ([5]; 10 mM sodium phosphate pH 6.6, 0.1 mM EDTA, two-site model, read-out: Kd (TARh), second-site Kd2 (in brackets)): 22 µM | Kd(TARh)/Kd(IIBh), Table S2 [5, 7]: 4.3 | Kd [5, 8]: 32 µM | Kd(TARh)/Kd(IIBh) [5]: 25

Cc1cc(-c2cc(CCN)ccc2CCN)c(C)cc1-c1cccc(CCN)c1 [Compound 3c]
association to LTRc (EMSA) [1]: associated only very weakly | CC50 at 48 h [2]: > 100 µM | EC50 [3]: 15.4 µM | EC50 (HIV-1 LTR promoter): 3.32 µM | IC50 (high-order RRE-Rev): > 50 µM | IC50 [4]: > 100 µM | EC50 (HIV-1): 14.1 µM | EC50 (HTLV-1 LTR promoter): 16.4 µM | Kd [5, 6]: 78 µM | Kd [5, 8]: > 50 µM | Kd(TARh)/Kd(IIBh) [5]: 12
